Data from patent US20140303164A1, “THERAPEUTIC COMPOUNDS” (Gilead Sciences, Inc., priority 2013, published 2014).

Legend:
[1] = tested on: HIV-IIIb; assay: Test A: Antiviral Assay in MT4 Cells; assay type: cell-based, HIV-1; conditions: Human immunodeficiency virus 1, IIIB, MT4, 120 h; for inhibition at 0.2 µM: read-out: % inhibition at 0.2 μM; for inhibition at 2 µM: read-out: % inhibition at 2 μM
Protocol: Test A: Antiviral Assay in MT4 Cells
MT-4 cells were next mixed with HIV-IIIb at an m.o.i of 0.003 for 1 hour, after which time 35 μL of virus/cell mixture (2000 cells) was immediately added to each well containing 40 μL of diluted compound. The plates were then incubated at 37° C. for 5 days. […] Cell lysis was carried out by incubating at room temperature for 10 min and then chemiluminescence was read.

[2] = Test B: Cytotoxicity Assay; assay type: cell-based; conditions: human, uninfected MT-4 cells, same protocol as Test A
Summary of the method: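 Uninfected MT-4 cells (2000 per well) incubated with diluted compound at 37° C. for 5 days, following the antiviral protocol without HIV-IIIb.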

Row | SMILES | inhibition at 0.2 µM [1] [%] | inhibition at 2 µM [1] [%] | CC50 at 5 days [2] [µM]
1 | CNc1nnc2c(-c3ccc(C#CC(C)(C)O)nc3[C@H](Cc3cc(F)cc(F)c3)NC(=O)Cn3nc(C(F)F)c4c3C(F)(F)[C@@H]3C[C@H]43)cccn12 [Compound 76F, 2-((3bS,4aR)-3-(difluoromethyl)-5,5-difluoro-3b,4,4a,5-tetrahydro-1H-cyclopropa[3,4]cyclopenta[1,2-c]pyrazol-1-yl)-N—((S)-2-(3,5-difluorophenyl)-1-(6-(3-hydroxy-3-methylbut-1-yn-1-yl)-3-(3-(methylamino)-[1,2,4]triazolo[4,3-a]pyridin-8-yl)pyridin-2-yl)ethyl)acetamide] | 98 | 98 | 22.6
2 | Cn1nc(NS(C)(=O)=O)c2c(F)ccc(-c3ccc(C#CC(C)(C)O)nc3[C@H](Cc3cc(F)cc(F)c3)NC(=O)Cn3nc(C(F)(F)F)c4c3C(F)(F)[C@@H]3C[C@H]43)c21 [Compound 132C, 2-((3bS,4aR)-5,5-difluoro-3-(trifluoromethyl)-3b,4,4a,5-tetrahydro-1H-cyclopropa[3,4]cyclopenta[1,2-c]pyrazol-1-yl)-N—((S)-2-(3,5-difluorophenyl)-1-(3-(4-fluoro-1-methyl-3-(methylsulfonamido)-1H-indazol-7-yl)-6-(3-hydroxy-3-methylbut-1-yn-1-yl)pyridin-2-yl)ethyl)acetamide] | 92 | 92 | 24.2
3 | Cn1nc(N)c2cccc(-c3ccc(C#CC(C)(C)O)nc3[C@H](Cc3cc(F)cc(F)c3)NC(=O)Cn3nc(C(F)F)c4c3C(F)(F)[C@@H]3C[C@H]43)c21 [Compound 32, N—((S)-1-(3-(3-amino-1-methyl-1H-indazol-7-yl)-6-(3-hydroxy-3-methylbut-1-yn-1-yl)pyridin-2-yl)-2-(3,5-difluorophenyl)ethyl)-2-((3b-S,4aR)-3-(difluoromethyl)-5,5-difluoro-3b,4,4a,5-tetrahydro-1H-cyclopropa[3,4]cyclopenta[1,2-c]pyrazol-1-yl)acetamide] | 84 | 84 | 9.18
4 | CCN1CCN(CC(=O)N[C@@H](Cc2cc(F)cc(F)c2)c2nc(C#CC(C)(C)O)ccc2-c2ccc(Cl)c3c(NS(C)(=O)=O)nn(C)c23)CC1 [Compound 197, (S)—N-(1-(3-(4 chloro-1-methyl-3-(methylsulfonamido)-1H-indazol-7-yl)-6-(3-hydroxy-3-methylbut-1-yn-1-yl)pyridin-2-yl)-2-(3,5-difluorophenyl)ethyl)-2-(4-ethylpiperazin-1-yl)acetamide] | – | 63 | 15.4
5 | CN(C)CC(=O)Nc1nn(C)c2c(-c3ccc(C#CC(C)(C)O)nc3[C@H](Cc3cc(F)cc(F)c3)NC(=O)Cn3nc(C(F)F)c4c3C(F)(F)[C@@H]3C[C@H]43)ccc(Cl)c12 [Compound 99B, N—((S)-1-(3-(4-chloro-3-(2-(dimethylamino)acetamido)-1-methyl-1H-indazol-7-yl)-6-(3-hydroxy-3-methylbut-1-yn-1-yl)pyridin-2-yl)-2-(3,5-difluorophenyl)ethyl)-2-((3b-S,4aR)-3-(difluoromethyl)-5,5-difluoro-3b,4,4a,5-tetrahydro-1H-cyclopropa[3,4]cyclopenta[1,2-c]pyrazol-1-yl)acetamide] | 100 | 100 | 6.37
6 | C[C@@H](O)C#Cc1ccc(-c2ccc(Cl)c3c(NS(C)(=O)=O)nn(C)c23)c([C@H](Cc2cc(F)cc(F)c2)NC(=O)Cn2nc(C(F)F)c3c2C(F)(F)[C@@H]2C[C@H]32)n1 [Compound 143, N—((S)-1-(3-(4-chloro-1-methyl-3-(methylsulfonamido)-1H-indazol-7-yl)-6-((R)-3-hydroxybut-1-yn-1-yl)pyridin-2-yl)-2-(3,5-difluorophenyl)ethyl)-2-((3b-S,4aR)-3-(difluoromethyl)-5,5-difluoro-3b,4,4a,5-tetrahydro-1H-cyclopropa[3,4]cyclopenta[1,2-c]pyrazol-1-yl)acetamide] | 98 | 98 | 11.3
7 | Cn1nc(NS(C)(=O)=O)c2cccc(-c3ccc(C#CC(C)(C)CO)nc3[C@H](Cc3cc(F)cc(F)c3)NC(=O)Cn3nc(C(F)(F)F)c4c3C(F)(F)[C@@H]3C[C@H]43)c21 [Compound 63, 2-((3bS,4aR)-5,5-difluoro-3-(trifluoromethyl)-3b,4,4a,5-tetrahydro-1H-cyclopropa[3,4]cyclopenta[1,2-c]pyrazol-1-yl)-N—((S)-2-(3,5-difluorophenyl)-1-(6-(4-hydroxy-3,3-dimethylbut-1-yn-1-yl)-3-(1-methyl-3-(methylsulfonamido)-1H-indazol-7-yl)pyridin-2-yl)ethyl)acetamide] | 91 | 91 | 8.89
8 | Cn1nc(NC(=O)NC2CC2)c2cccc(-c3ccc(C#CC(C)(C)O)nc3[C@H](Cc3cc(F)cc(F)c3)NC(=O)Cn3nc(C(F)(F)F)c4c3C(F)(F)[C@@H]3C[C@H]43)c21 [Compound 50, N—((S)-1-(3-(3-(3-cyclopropylureido)-1-methyl-1H-indazol-7-yl)-6-(3-hydroxy-3-methylbut-1-yn-1-yl)pyridin-2-yl)-2-(3,5-difluorophenyl)ethyl)-2-((3b-S,4aR)-5,5-difluoro-3-(trifluoromethyl)-3b,4,4a,5-tetrahydro-1H-cyclopropa[3,4]cyclopenta[1,2-c]pyrazol-1-yl)acetamide] | 95 | 96 | 11.7
9 | COc1cc(-c2ccc(Cl)c3c(NS(C)(=O)=O)nn(C)c23)c([C@H](Cc2cc(F)cc(F)c2)NC(=O)Cn2nc(C(F)F)c3c2C(F)(F)[C@@H]2C[C@H]32)nc1C#CC(C)(C)O [Compound 139B, N—((S)-1-(3-(4-chloro-1-methyl-3-(methylsulfonamido)-1H-indazol-7-yl)-6-(3-hydroxy-3-methylbut-1-yn-1-yl)-5-methoxypyridin-2-yl)-2-(3,5-difluorophenyl)ethyl)-2-((3b-S,4aR)-3-(difluoromethyl)-5,5-difluoro-3b,4,4a,5-tetrahydro-1H-cyclopropa[3,4]cyclopenta[1,2-c]pyrazol-1-yl)acetamide] | 94 | 94 | 15.4
10 | Cn1cc(S(=O)(=O)Nc2nn(C)c3c(-c4ccc(C#CC(C)(C)O)nc4[C@H](Cc4cc(F)cc(F)c4)NC(=O)Cn4nc(C(F)(F)F)c5c4C(F)(F)[C@@H]4C[C@H]54)cccc23)cn1 [Compound 48, 2-((3bS,4aR)-5,5-difluoro-3-(trifluoromethyl)-3b,4,4a,5-tetrahydro-1H-cyclopropa[3,4]cyclopenta[1,2-c]pyrazol-1-yl)-N—((S)-2-(3,5-difluorophenyl)-1-(6-(3-hydroxy-3-methylbut-1-yn-1-yl)-3-(1-methyl-3-(1-methyl-1H-pyrazole-4-sulfonamido)-1H-indazol-7-yl)pyridin-2-yl)ethyl)acetamide] | 88 | 88 | 24
